Experimental data taken from PMC9763021, “Comprehensive Assessment of Biomolecular Interactions of Morpholine-Based Mixed Ligand Cu(II) and Zn(II) Complexes of 2,2′-Bipyridine as Potential Anticancer and SARS-CoV-2 Agents: A Synergistic Experimental and Structure-Based Virtual Screening” (Bioinorganic Chemistry and Applications, 2022).

Key:
[1] = test system: calf thymus deoxyribonucleic acid; experiment: DNA binding by viscometric (hydrodynamic) technique
Protocol: The titrations were performed for all compounds including EB (control) at 20, 40, 60, 80, and 100 μM concentrations. In the Ostwald viscometer, these substances were also separately treated with the calf thymus deoxyribonucleic acid solution (100 μM).
Hydrodynamic findings can be utilized to assess the alteration of DNA length and afford details on the binding tendency between small molecules and biomolecules. As a result of their sensitivity to DNA contour length changes, which implies that the average distance between each monomer (cl = 0.338 nm/bp for B-form DNA), the DNA binding properties of all test compounds were further validated by this method. According to the Lerman concept, interactions between small molecules and deoxyribonucleic acid via covalent and noncovalent bindings are often possible. When a chemical substance interacts with the deoxyribonucleic acid double helix, the contour length of DNA increases via intercalation and leads to an increase in the absolute viscosity. Meanwhile, if DNA viscosity is not affected during interactions, which leads to the responsible for the major/minor groove binding due to H-bond/Van der Waals interactions, electrostatic, partial, or nonclassical interaction modes. Therefore, analyzing the binding modes provides additional support for the findings as well as a crucial aspect of the conventional intercalation concept. In this case, it was observed that the absolute viscosity increased consistently along with the concentration of each substance at the fixed DNA concentration. The DNA must extend to facilitate the binding of ligands, which causes a considerable rise in DNA viscosity while small molecules intercalate into the DNA helix. According to equation (12), an increase in relative viscosity denotes an intercalation-induced lengthening of the deoxyribonucleic acid base pair. While adhering to the principle of excluding the nearest neighbors, intercalation entails inserting a planar molecule into a DNA base pair without rupturing the hydrogen bonds that hold the base pairs together. This causes a diminution in the DNA helical twist and an extension of the DNA. Moreover, a molecule can be presumed to bind to deoxyribonucleic acid by intercalation between base pairs if it causes lengthening and unwinding of the deoxyribonucleic acid base pairs. In this case, the relative viscosity of DNA gradually increases, while the […]. Moreover, the affinity interactions and their slope values were observed from the relative specific viscosity (η⁄η0)^1/3 plotted straight line contrasting [Compound]/[DNA], and absolute specific viscosity of deoxyribonucleic acid in the absence or presence of samples was evaluated using equation (12) (Table 3). […] The evaluated slope findings were in the subsequent sequence: (EB) 1.215 > (1a) 0.915 > (2a) 0.630 > (HL) 0.490 (Figure S21 and Table 3). […] Due to the existence of the 2,2′-bipyridine and morpholine-fused aromatic planar systems, compounds can interact with deoxyribonucleic acid robustly via intercalation. The outcomes were excellent in accordance with the observed outcomes of absorption spectral properties.(11) η/η0^1/3=tcomplex−t0/t0/tDNA−t0/t0, where η and η0 are represented as specific viscosity of DNA in the presence complex and specific viscosity of DNA alone, and t0, tDNA, and tcomplex are represented as the average flow time of the Tris-HCl buffer solution, the average flow time of DNA alone solution, and the average flow time of DNA interacted with the samples, respectively. Error limit is ±2.5% (P < 0.025).

[2] = Hydroxyl radical scavenging assay; type: biochemical; conditions: for % Inhibition hydroxyl radical: 230 nm
Protocol: All samples were evaluated for their scavenging ability with the help of UV-visible spectrophotometer at different concentrations of 40, 80, 120, 160, 200, and 240 μM [6, 28]. While performing the antioxidant properties for the DPPH, hydroxyl, superoxide, and nitric oxide radical scavenging, the absorbance at 517, 230, 590, and 546 nm, respectively, was closely observed. In addition, the observed IC50 values of all samples were compared with ascorbic acid.
Hydrogen peroxide receives electrons from antioxidant molecules and then neutralizes them into a water molecule. ^●OH inhibition capability was determined from the % of inhibition for all test substances at 230 nm.

CT-DNA = experiment: DNA thermal denaturation (biothermodynamic properties); type: binding, calf thymus; conditions: for Tm (K) / Tm °C of DNA-compound adduct: 260 nm, [DNA]/[Complex] = 1; for Tm °C of DNA-compound adduct: CT-DNA alone 68°C; for ΔH°: Van't Hoff equation; for ΔTm °C: versus free DNA (68°C); for ΔG°: −R.Tm.lnKm
Protocol: Thermal denaturation characteristics were executed by a UV-visible spectrophotometer in a temperature-controlled sample container in both the presence and absence of the substances. In a Tris-HCl buffer solution with a pH of 7.4, all substances were incubated with CT-DNA in a 1 : 1 ratio. Temperature increases of two degrees Celsius per minute were applied to test substances in the range of 25 to 100°C, and the changes in absorbance at 260 nm were carefully scrutinized.
DNA denaturation contributes to the root cause of several chronic diseases, hereditary disorders, and a reduction in the ability of DNA repair to work properly. The biothermodynamic properties were further supported to determine the ability of stabilization of the double-standard DNA, and it offers details on the structural alterations, the degree of the DNA-compound system, the external binding-mediated neutralization of phosphate charges on DNA, and the stacking interactions, all of which work together to raise the DNA's melting point. […] The Van't Hoff (9) and Gibbs Helmholtz equations (10) were supportive in evaluating the biothermodynamic parameters, which are enclosed in Table 2. […] The influencing factors between test compounds and DNA mostly depend on the type of interaction mode. Because of the driving forces, H-bonds, weak Van der Waals forces, and electrostatic modes of binding all occur while the enthalpy is favourable. Hydrophobic forces induce binding while entropy is favourable; on the other hand, the loss of structural degrees of freedom leads to undesirable entropic changes. As per Ross and colleagues, the findings for ΔH° and ΔS° can alternatively be derived in the following favourable sequence. If ΔH° > 0 and ΔS° > 0, this attributes intercalation due to hydrophobic forces of attraction. If ∆H° < 0 and ΔS° < 0, this involves weak Van der Waals forces of attraction and H-bonding interactions. On the other hand, if ΔH° < 0 (or), ΔH°≈0 and ∆S° > 0, this indicates the electrostatic mode of binding possible between DNA and compounds [28, 68]. […] Furthermore, it is widely acknowledged that the hydration and generation of the compound-deoxyribonucleic acid adduct system via the counter ion liberating mechanism are highly dependent on the hydrophobic forces of attraction.

SMILES	Slope of (η/η0)^1/3 vs [Compound]/[DNA] [1]	Relative specific viscosity (η/η0)^1/3 ([1]; [complex]/[DNA] = 0.2)	Relative specific viscosity (η/η0)^1/3 ([1]; [complex]/[DNA] = 0.4)	Relative specific viscosity (η/η0)^1/3 ([1]; [complex]/[DNA] = 0.6)	Relative specific viscosity (η/η0)^1/3 ([1]; [complex]/[DNA] = 0.8)	Relative specific viscosity (η/η0)^1/3 ([1]; [complex]/[DNA] = 1.0)	IC50 [2] [µM]	% Inhibition hydroxyl radical ([2]; 40 µM) [%]	% Inhibition hydroxyl radical ([2]; 80 µM) [%]	% Inhibition hydroxyl radical ([2]; 120 µM) [%]	% Inhibition hydroxyl radical ([2]; 160 µM) [%]	% Inhibition hydroxyl radical ([2]; 200 µM) [%]	% Inhibition hydroxyl radical ([2]; 240 µM) [%]	ΔS° (CT-DNA)	Tm (K) (CT-DNA)	Tm °C of DNA-compound adduct (CT-DNA) [°C]	Binding constant Kr at 298 K (CT-DNA)	ΔH° (CT-DNA)	ΔTm °C (CT-DNA) [°C]	ΔG° (CT-DNA)
[Cu+2].[O-]c1ccccc1N=Cc1ccc(N2CCOCC2)cc1.[O-]c1ccccc1N=Cc1ccc(N2CCOCC2)cc1.c1ccc(-c2ccccn2)nc1 [(1a), [Cu(L)2(bpy)]]	0.915	0.88	1.11	1.22	1.38	1.66	200	09.16	18.23	32.22	40.12	51.14	61.10	–6.9577 cal mol^–1	353	80	1.9000 × 10^4 M^–1	–7.9071 kcal mol^–1	12	–5.4511 kcal mol^–1
[O-]c1ccccc1N=Cc1ccc(N2CCOCC2)cc1.[O-]c1ccccc1N=Cc1ccc(N2CCOCC2)cc1.[Zn+2].c1ccc(-c2ccccn2)nc1 [(2a), [Zn(L)2(bpy)]]	0.630	0.74	0.81	0.87	1.03	1.26		08.25	16.86	25.78	34.66	45.78	56.14	–8.4501 cal mol^–1	351	78	1.8287 × 10^4 M^–1	–8.3292 kcal mol^–1	10	–5.3632 kcal mol^–1
Oc1ccccc1N=Cc1ccc(N2CCOCC2)cc1 [(HL), 2-(4-morpholinobenzylideneamino)phenol]	0.490	0.61	0.67	0.75	0.85	1.01		07.26	14.43	25.52	33.86	40.73	50.68	–13.7851 cal mol^–1	347	74	1.5169 × 10^4 M^–1	–9.8083 kcal mol^–1	6	–5.0249 kcal mol^–1
